Laboratory results published in US9265253B2, “Use of macrocyclic picolinamides as fungicides” (DOW AGROSCIENCES LLC, priority 2013, dated 2016).
Read-outs that look alike come from different tables or passages of the source.

Experiments:
[1] = tested on: Puccinia triticina; Synonym: Puccinia recondite f. Sp. Tritici; assay: Wheat Brown Rust (PUCCRT) disease control; format: in vivo; conditions: Puccinia triticina, topical; for pest or weed control at 100 ppm: rate 100 ppm; for pest or weed control at 121.5 g/ha: rate 121.5 g/H
Method in brief: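 Brown rust on first-leaf Yuma wheat: spore inoculation before or after spray application (acetone/Triton X-100 solution, or EC with Trycol in track spray), overnight 100% RH at 22 °C, disease developed at 24 °C. Severity scored 0–100% and converted to percent control against untreated.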

[2] = tested on: Mycosphaerella graminicola; Anamorph: Septoria tritici; assay: Leaf Blotch of Wheat (SEPTTR) disease control; format: in vivo; conditions: Zymoseptoria tritici; for pest or weed control at 100 ppm: rate 100 ppm; for pest or weed control at 121.5 g/ha: rate 121.5 g/H
Method in brief: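 Percent disease control is derived from Septoria tritici leaf blotch severity (0 to 100 percent) on treated versus untreated wheat seedlings. Plants get fungicide spray to run-off, with inoculation either preceding or following application, then humid incubation at 20° C.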

[3] = 24 h, 1 Day Protectant, read-out: PUCCRT 1 DP disease control
[4] = 72 h, 3 Day Curative, read-out: PUCCRT 3 DC disease control
[5] = 24 h, 1 Day Protectant, read-out: SEPTTR 1 DP disease control
[6] = 72 h, 3 Day Curative, read-out: SEPTTR 3 DC disease control

Compound	pest or weed control at 100 ppm [1, 3] [%]	pest or weed control at 121.5 g/ha [1, 3] [%]	pest or weed control at 100 ppm [1, 4] [%]	pest or weed control at 121.5 g/ha [1, 4] [%]	pest or weed control at 100 ppm [2, 5] [%]	pest or weed control at 121.5 g/ha [2, 5] [%]	pest or weed control at 100 ppm [2, 6] [%]	pest or weed control at 121.5 g/ha [2, 6] [%]
COc1ccnc(C(=O)N[C@H]2CCC[C@H](CCC(C)C)[C@@H](OCCCC(F)(F)F)[C@H](C)OC2=O)c1OCOC(=O)C(C)C [Compound F150]	80 to 100	80 to 100	80 to 100	0 to 80	80 to 100	80 to 100	80 to 100	80 to 100
COc1ccnc(C(=O)N[C@H]2CCC[C@H](Cc3ccc(C)cc3)[C@@H](OCCCC(F)(F)F)[C@H](C)OC2=O)c1OCOC(C)=O [Compound F139]	80 to 100	80 to 100	80 to 100	0 to 80	80 to 100	80 to 100	80 to 100	80 to 100
CCOCC(=O)OCOc1c(OC)ccnc1C(=O)N[C@H]1CCC[C@H](Cc2ccc(F)cc2)[C@@H](Oc2ccccc2)[C@H](C)OC1=O [Compound F165]	80 to 100	80 to 100	80 to 100	0 to 80	80 to 100	80 to 100	80 to 100	80 to 100
COc1ccnc(C(=O)N[C@H]2CCC[C@H](CCOc3ccccc3)[C@@H](Oc3ccccc3)[C@H](C)OC2=O)c1OCOC(C)=O [Compound F129]	80 to 100	80 to 100	80 to 100	0 to 80	80 to 100	80 to 100	80 to 100	80 to 100
COc1ccnc(C(=O)N[C@H]2CCC[C@H](C)[C@@H](OCc3ccccc3)[C@H](C)OC2=O)c1OC(C)=O [Compound F77]	80 to 100	80 to 100	80 to 100	80 to 100	80 to 100	80 to 100	80 to 100	80 to 100
C=CCO[C@@H]1[C@@H](Cc2ccc(F)cc2)CCC[C@H](NC(=O)c2nccc(OC)c2OCOC(C)=O)C(=O)O[C@H]1C [Compound F100]	80 to 100	80 to 100	80 to 100	0 to 80	80 to 100	80 to 100	80 to 100	80 to 100
COc1ccnc(C(=O)N[C@H]2CCC[C@H](Cc3ccc(F)cc3)[C@@H](OCC(F)F)[C@H](C)OC2=O)c1OCOC(C)=O [Compound F103]	80 to 100	80 to 100	80 to 100	80 to 100	80 to 100	80 to 100	80 to 100	80 to 100
COCC[C@H]1CCC[C@H](NC(=O)c2nccc(OC)c2O)C(=O)O[C@@H](C)[C@@H]1Oc1ccccc1 [Compound F45]	80 to 100		80 to 100		80 to 100		80 to 100	
COc1ccnc(C(=O)N[C@H]2CCC[C@@H]3CCO[C@H]3[C@H](C)OC2=O)c1OCOC(C)=O [Compound F143]	80 to 100	80 to 100	80 to 100	80 to 100	0 to 80	0 to 80	0 to 80	
CCOCC(=O)OCOc1c(OC)ccnc1C(=O)N[C@H]1CCC[C@H](Cc2ccc(F)cc2)[C@@H](OCC(F)F)[C@H](C)OC1=O [Compound F169]	80 to 100	80 to 100	80 to 100	80 to 100	80 to 100	80 to 100	0 to 80	80 to 100
COc1ccnc(C(=O)N[C@H]2CCC[C@H](Cc3ccc(F)cc3)[C@@H](OCC(C)C)[C@H](C)OC2=O)c1O [Compound F14]	80 to 100		80 to 100		80 to 100		80 to 100	
COc1ccnc(C(=O)N[C@H]2CCC[C@H](Cc3ccc(C)cc3)[C@@H](OCC3CC3)[C@H](C)OC2=O)c1O [Compound F42]	80 to 100		80 to 100		80 to 100		80 to 100	
CCOCC(=O)OCOc1c(OC)ccnc1C(=O)N[C@H]1CCC[C@H](Cc2ccc(OC)cc2)[C@@H](OCC2CC2)[C@H](C)OC1=O [Compound F177]	80 to 100	80 to 100	80 to 100	80 to 100	80 to 100	80 to 100	80 to 100	80 to 100
CCOCC(=O)OCOc1c(OC)ccnc1C(=O)N[C@H]1CCC[C@H](Cc2ccc(F)cc2)[C@@H](OC(=O)C(C)C)[C@H](C)OC1=O [Compound F171]	80 to 100	80 to 100	80 to 100	0 to 80	80 to 100	80 to 100	80 to 100	80 to 100
COc1ccnc(C(=O)N[C@H]2CCC[C@H](CC3CCCC3)[C@@H](OCC(C)C)[C@H](C)OC2=O)c1OC(C)=O [Compound F75]	80 to 100	80 to 100	80 to 100	0 to 80	80 to 100	80 to 100	80 to 100	80 to 100
COc1ccnc(C(=O)N[C@H]2CCC[C@H](Cc3ccccc3)[C@@H](OCC3CC3)[C@H](C)OC2=O)c1O [Compound F19]	80 to 100		80 to 100		80 to 100		80 to 100	
COc1ccnc(C(=O)N[C@H]2CCC[C@H](C)[C@@H](Oc3ccccc3)[C@H](C)OC2=O)c1O [Compound F38]	80 to 100		80 to 100		80 to 100			
COCCC(=O)Oc1c(OC)ccnc1C(=O)N[C@H]1CCC[C@H](CC2CCCC2)[C@@H](Oc2ccccc2)[C@H](C)OC1=O [Compound F153]	80 to 100	80 to 100	80 to 100	0 to 80	80 to 100	80 to 100	80 to 100	80 to 100
CCOCC(=O)Oc1c(OC)ccnc1C(=O)N[C@H]1CCC[C@H](CCOC)[C@@H](Oc2ccccc2)[C@H](C)OC1=O [Compound F186]	80 to 100		80 to 100		80 to 100		80 to 100	
